Paper PMC10101933 (European journal of medicinal chemistry, 2023)
One block for each compound: values may come before it.

Columns and labels:
[1] = tested on: Nrf2 target genes (GSTM3, HMOX1 and NQO1); experiment: RT-qPCR of Nrf2-ARE regulated genes in NCM460D cells; type: cell-based; conditions: 100 μM; for induction of the Nrf2 target genes (HMOX1, GSTM3, NQO1), in words: vs GAPDH and HPRT housekeeping genes
[2] = target: T1, Keap1 Kelch domain protein (Homo sapiens, UniProt Q14145); experiment: Time-resolved fluorescence resonance energy transfer; type: binding
T1 sequence (Q14145 321-609 limits assumed): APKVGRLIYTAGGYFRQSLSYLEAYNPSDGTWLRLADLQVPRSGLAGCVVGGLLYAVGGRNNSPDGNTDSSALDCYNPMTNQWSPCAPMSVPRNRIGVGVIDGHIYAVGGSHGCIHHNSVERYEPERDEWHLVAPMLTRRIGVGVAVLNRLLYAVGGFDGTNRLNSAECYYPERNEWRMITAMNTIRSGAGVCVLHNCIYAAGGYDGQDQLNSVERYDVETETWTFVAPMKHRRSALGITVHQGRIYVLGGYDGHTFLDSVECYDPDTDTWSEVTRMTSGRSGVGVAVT

[3] = target: T1, Keap1 Kelch domain protein; experiment: Fluorescence polarization; type: binding

Compound: COc1ccc(-c2cc(N(CC(=O)O)S(=O)(=O)c3ccc(OC)cc3)c3ccccc3c2N(CC(=O)O)S(=O)(=O)c2ccc(OC)cc2)cc1 [Compound 12b, 2,2’-((2-(4-Methoxyphenyl)naphthalene-1,4-diyl)bis(((4-methoxyphenyl)sulfonyl)azanediyl))diacetic acid]
induction of the Nrf2 target genes (HMOX1, GSTM3, NQO1), in words [1]: significant induction

Compound: COc1ccc(S(=O)(=O)N(CC(=O)O)c2cc(-c3ccc(C#N)cc3)c(N(CC(=O)O)S(=O)(=O)c3ccc(OC)cc3)c3ccccc23)cc1 [Compound 12c, 2,2’-((2-(4-Cyanophenyl)naphthalene-1,4-diyl)bis(((4-methoxyphenyl)sulfonyl)azanediyl))diacetic acid]
induction of the Nrf2 target genes (HMOX1, GSTM3, NQO1), in words [1]: no induction

Compound: COc1ccc(S(=O)(=O)N(CC(=O)O)c2cc(-c3ccc(N4C(=O)c5ccccc5C4=O)cc3)c(N(CC(=O)O)S(=O)(=O)c3ccc(OC)cc3)c3ccccc23)cc1 [Compound 12d, 2,2’-((2-(4-(1,3-Dioxoisoindolin-2-yl)phenyl)naphthalene-1,4-diyl)bis(((4-methoxyphenyl)sulfonyl)azanediyl))diacetic acid]
induction of the Nrf2 target genes (HMOX1, GSTM3, NQO1), in words [1]: significant induction

Compound: COc1ccc(S(=O)(=O)N(CC(=O)O)c2cc(CCC(N)=O)c(N(CC(=O)O)S(=O)(=O)c3ccc(OC)cc3)c3ccccc23)cc1 [Compound 21, 2,2’-((2-(3-Amino-3-oxopropyl)naphthalene-1,4-diyl)bis(((4-methoxyphenyl)sulfonyl)azanediyl))diacetic acid]
fold drop in inhibitory activity vs 2a ([2]; as indicated by the Ki value from the TR-FRET assay): ~2 fold

Compound: COc1ccc(S(=O)(=O)N(CC(=O)O)c2cc(CCCN(C)Cc3ccccc3)c(N(CC(=O)O)S(=O)(=O)c3ccc(OC)cc3)c3ccccc23)cc1 [Compound 24b, 2,2’-((2-(3-(Benzyl(methyl)amino)propyl)naphthalene-1,4-diyl)bis(((4-methoxyphenyl)sulfonyl)azanediyl))diacetic acid]
IC50 [3]: 276 ± 17 nM
fold reduction in potency vs 24a ([2]; TR-FRET assay): more than 20 fold

More lines, main results first:

fold decrease in potency relative to 2a ([2]; as indicated by TR-FRET IC50 and Ki): 3 fold
Compound: COc1ccc(S(=O)(=O)N(CC(N)=O)c2cc(CCC(=O)O)c(N(CC(N)=O)S(=O)(=O)c3ccc(OC)cc3)c3ccccc23)cc1 [Compound 17a, 3-(1,4-Bis((N-(2-amino-2-oxoethyl)-4-methoxyphenyl)sulfonamido)naphthalen-2-yl)propanoic acid]

fold increase in binding affinity vs 17b ([2]; as indicated by the TR-FRET Ki): 2 fold
Compound: COc1ccc(S(=O)(=O)N(CC(=O)O)c2cc(CCC(=O)N3CCOCC3)c(N(CC(=O)O)S(=O)(=O)c3ccc(OC)cc3)c3ccccc23)cc1 [Compound 17c, 2,2’-((2-(3-Morpholino-3-oxopropyl)naphthalene-1,4-diyl)bis(((4-methoxyphenyl)sulfonyl)azanediyl))diacetic acid]
induction of the Nrf2 target genes (HMOX1, GSTM3, NQO1), in words [1]: significant induction

Ki value (in words) ([2]; from TR-FRET assay): subnanomolar range
Compound: COc1ccc(S(=O)(=O)N(CC(=O)O)c2cc(CCCN3C(=O)c4ccccc4C3=O)c(N(CC(=O)O)S(=O)(=O)c3ccc(OC)cc3)c3ccccc23)cc1 [Compound 24a, 2,2’-((2-(3-(1,3-Dioxoisoindolin-2-yl)propyl)naphthalene-1,4-diyl)bis(((4-methoxyphenyl)sulfonyl)azanediyl))diacetic acid]
mRNA levels of GSTM3, HMOX1 and NQO1, fold vs vehicle (DMSO) control [1]: 2.4–11.7 fold
induction of the Nrf2 target genes (HMOX1, GSTM3, NQO1), in words [1]: significant induction
